SMILES strings stand for the structures.

One data set deals with Staphylococcus aureus. Put plainly: Antimicrobial screening by agar dilution, Staphylococcus aureus. Type of data set: cell-based. The settings on record: after 10, 20, 40 and 60 minutes at all dilutions 1:100, 1:200, 1:400, 1:800. The protocol:
(§1) The antibacterial properties of the synthesized compound ethyl 2-[9-(2-hydroxyquinolin-3-yl)-1,8-dioxo-3,4,9,10-tetrahydroacridine-10-yl]-acetate were studied by the method of agar dilution. Test solutions of each compound was prepared in concentration of 1% using dimethylformamide as a solvent then they are diluted in physiological solution to obtain the final experimental dilutions 1:100, 1:200, 1:400, 1:800. The effect of these substances are compared with furacillin in a controllable study. The testing microbes used were gram positive bacteria Staphylococcus aureus, gram negative bacteria Pseudomonas aeruginosa and Escherichia coli and Candida albicans fungus. The experiments used for this survey were meat-pentonlu agar (EPA) for cultivation of bacteria and Saburo environment for the fungus. Each experiment used 1 mL of test solution on each plate […]. Two drops of emulsified with microbes feel were added. All experimental samples were taken from the agar after 10, 20, 40, 60 minutes in the environment on the basis of Patrk planted. The bacteria were cultivated at a temperature of 37° C. for 1 day and the mushroom was kept in a thermostat for […] at a temperature of 28° C. Then results were checked.

For another data set, the system named is Escherichia coli. Put plainly: Antimicrobial screening by agar dilution, Escherichia coli. Type of data set: cell-based. The settings on record: after 10, 20, 40 and 60 minutes at all dilutions 1:100, 1:200, 1:400, 1:800. The protocol: as §1
A further data set concerns Pseudomonas aeruginosa. The data set can be described thus: Antimicrobial screening by agar dilution, Pseudomonas aeruginosa. Type of data set: cell-based. The following applies: after 10, 20, 40 and 60 minutes at all dilutions 1:100, 1:200, 1:400, 1:800. The method, then:
as §1

Another data set has as its system Candida albicans. Put plainly: Antimicrobial (antifungal) screening by agar dilution, Candida albicans. The settings on record: after 10, 20, 40 and 60 minutes at all dilutions 1:100, 1:200, 1:400, 1:800. The data set is classed as cell-based. The protocol:
as §1

The molecule `CCOC(=O)CN1C2=C(C(=O)CCC2)C(c2cc3ccccc3nc2O)C2=C1CCCC2=O` [ethyl 2-[9-(2-hydroxyquinolin-3-yl)-1,8-dioxo-3,4,9,10-tetrahydroacridine-10-yl]-acetate] showed a melting point of 228 °C. The inhibition activity result in the data set on Staphylococcus aureus was “highest inhibition activity”. Moreover, the inhibition activity result in the data set with Escherichia coli is “highest inhibition activity”. Besides, the inhibition activity entry in the data set with Pseudomonas aeruginosa is “highest inhibition activity”. Further, in the data set on Candida albicans, the inhibition activity result is reported as “highest inhibition activity”.
